Data taken from patent US20110207807A1, “NEW USE FOR HOMOISOFLAVONE OR A SALT THEREOF” (Catholic University Industry Academy Cooperation Foundation, priority 2008, published 2011).

Key:
[1] = system: IL-6; test: UV-induced IL-6 mRNA expression in HaCaT cells (real-time PCR); format: cell-based, human; details: 1 μg/mL, UV 100 J/m^2, compared to control group (FIG. 3)
Experimental: 1×10^6 HaCaT cells were inoculated on a 100-mm culture dish and cultured in DMEM containing 10% FBS for 24 hour. Then, the cells were starved by culturing for 24 hours in DMEM containing 1% FBS. Then, after treating with homoisoflavanone at 1 μg/mL for 1 hour, the cells were washed 3 times with PBS and irradiated with UV at 100 J/m^2 to induce increase of cytokines. Immediately after the UV radiation, the cells were washed again with PBS and further cultured for 2 or 5 hours in DMEM containing 1% FBS which had been treated with homoisoflavanone at the same concentration.
After extracting RNA from the cells of each test group using TRIzol (Invitrogen, USA), cDNA was prepared by carrying out PCR (PTC-225 Peltier thermal cycler, MJ Research, USA). Then, the mRNA expression of IL-6, IL-8 and TNF-α was measured through real-time PCR (Roter Gene 6000 series, Corbett Research, Australia) using the cDNA as template and using commercially available IL-6, IL-8 and TNF-α primers. The expression level of the pro-inflammatory cytokines was compared relative to the non-treated group.

[2] = system: ERK; test: ERK phosphorylation induced by PMA and A23187 in HMC-1 (Western blot); format: cell-based, human; details: HMC-1, 2 μg/mL, 50 nM PMA + 1 μM A23187, 30 minutes (FIG. 7c)
Experimental: 1×10^6 HMC-1 cells were inoculated on a 100-mm culture dish and cultured in IMDM containing 10% FBS for 48 hours. […] Then, Western blotting was carried out in the same manner as in Example 2-1 except for using rabbit anti-p-cytosolic phospholipase A2 (cPLA2) antibody, rabbit anti-cPLA2 antibody, rabbit anti-ERK antibody and rabbit anti-p-ERK antibody (Cell Signaling) and using anti-rabbit IgG-HRP conjugation antibody (Zymed) as secondary antibody.

[3] = system: IL-6; test: IL-6 mRNA expression induced by PMA and A23187 in HMC-1 (real-time PCR); format: cell-based, human; details: HMC-1, 2 μg/mL, 50 nM PMA + 1 μM A23187, 5 hours (FIG. 6c)
Experimental: (§1) In order to investigate the effect of homoisoflavanone on the release of pro-inflammatory cytokines induced by phorbol 12-myristate 13-acetate and A23187 in HMC-1, 5×10^5 HMC-1 cells were inoculated on a 60-mm culture dish and cultured in IMDM containing 10% FBS for 48 hours. Then, after treating with homoisoflavanone at 2 μg/mL, the cells were treated with 50 nM phorbol 12-myristate 13-acetate and 1 μM A23187 to induce release of pro-inflammatory cytokines, and then further cultured for 5 hours.
(§2) After extracting RNA from the cells of each test group using TRIzol, cDNA was prepared by carrying out PCR using the RNA as a template. Then, the mRNA expression of IL-6 and IL-8 was measured through real-time PCR using the cDNA as template and using commercially available IL-6 and IL-8 primers. The expression level of the pro-inflammatory cytokines was compared relative to the non-treated group.

[4] = system: 5-LOX; test: 5-LOX translocation to nuclear membrane induced by PMA and A23187 in HMC-1 (Western blot); format: cell-based, human; details: HMC-1, 2 μg/mL, 50 nM PMA + 1 μM A23187, 5 hours (FIG. 7b)
Experimental: as §1, with “migration” for “release”, “5-LOX from the cytoplasm toward the nuclear membrane” for “pro-inflammatory cytokines”, “human mast cells, 1×10^6” for “HMC-1, 5×10^5”, “100-mm” for “60-mm”, “5-LOX to the nuclear membrane,” for “pro-inflammatory cytokines,”
Then, in order to measure the migration of 5-LOX to the nuclear membrane, nuclear membrane proteins were isolated first. The cells of each test group were lysed with a buffer containing 10 mM HEPES/KOH, 0.1 mM EDTA, 10% NP-40, 10 mM KCl, 1 mM DTT, 0.5 mM PMSF and a protease inhibitor cocktail on ice for 10 minutes. After centrifugation, the supernatant (cytoplasmic proteins) was separated from the pellets (nuclear membrane proteins). The cytoplasmic proteins were kept at −80° C. and the pellets were lysed with a buffer containing 10 mM HEPES/KOH, 0.1 mM EDTA, 10% NP-40, 300 mM NaCl, 1 mM DTT, 0.5 mM PMSF and a protease inhibitor cocktail by shaking on ice for 30 minutes. Then, after centrifugation, the supernatant (nuclear proteins) was separated. […]

[5] = system: COX-2; test: COX-2 expression induced by PMA and A23187 in human mast cells (Western blot); format: cell-based; details: HMC-1, homoisoflavanone 2 μg/mL or celecoxib 60 μM, 50 nM PMA + 1 μM A23187, 21 hours (FIG. 7a)
Experimental: In order to investigate the effect of homoisoflavanone on COX-2 expression induced by phorbol 12-myristate 13-acetate and A23187 in human mast cells, 1×10^6 HMC-1 cells were inoculated on a 100-mm culture dish and cultured in IMDM containing 10% FBS for 48 hours.

[6] = system: NF-κB; test: UV-induced NF-κB nuclear translocation in HaCaT cells (immunocytochemical staining); format: cell-based, human; details: 1 μg/mL, UV 100 J/m^2, 4 hours (FIG. 2e)
Experimental: In order to investigate whether the transcription factor NF-κB is activated, human keratinocytes HaCaT cells were immunocytochemically stained as follows.
After inoculating the cells on a 14-mm culture slide, the cells were cultured in DMEM containing 10% FBS for 24 hour. Then, the cells were starved by culturing for 24 hours in DMEM containing 1% FBS. Then, after treating with homoisoflavanone at 1 μg/mL for 1 hour, the cells were washed 3 times with PBS and irradiated with UV at 100 J/m^2. Immediately after the UV radiation, the cells were washed again with PBS and further cultured for 4 hours in DMEM containing 1% FBS while treating with homoisoflavanone at the same concentration. Then, the cells were fixed with methanol for 5 minutes and then subjected to immunocytochemical staining.
The fixed cells were blocked with 10% normal goat serum and then washed 3 times with PBS. Then, after fluorescence staining NF-κB using rabbit anti-NF-κB antibody (SantaCruz, USA) and Alexa 488-conjugated anti-rabbit IgG secondary antibody (Invitrogen, USA), counter staining was carried out using Hoechst (Sigma, St. Louis, Mo.).

[7] = system: IL-8; test: IL-8 mRNA expression induced by PMA and A23187 in HMC-1 (real-time PCR); format: cell-based, human; details: HMC-1, 2 μg/mL, 50 nM PMA + 1 μM A23187, 5 hours (FIG. 6d)
Experimental: as §1, §2

Structure (SMILES): COc1ccc(CC2COc3cc(O)cc(O)c3C2=O)cc1O (stereo not shown) [homoisoflavanone]
- expression of IL-6 (mRNA) induced by UV [1]: decreased expression
- ERK phosphorylation [2]: no effect
- inhibition of release (mRNA expression) of IL-6 [3]: 50%
- migration of 5-LOX toward the nuclear membrane [4]: inhibited
- inhibition of COX-2 expression [5]: 80%
- migration of NF-κB into the nucleus induced by UV radiation [6]: inhibits
- inhibition of release (mRNA expression) of IL-8 [7]: 50%
